Where two headings read alike, the source gives them in different places.
Columns and labels:
HEL92.1.7 cells = test: cellular viability by CellTiter Blue assay, single agents and matrix combination; assay type: cell-based; conditions: Homo sapiens, HEL 92.1.7, 72 h, single agent, three days of treatment
Method: HEL92.1.7 cells were plated in 96-well plates and then treated with Compound 2 or MK-1775 as single agents. After three days of treatment, cellular viability was assessed by CellTiter Blue assay (Promega). Data represent the mean±S.E. (n=5 for Compound 2, n=2 for MK-1775). […] HEL92.1.7 cells were plated in 96-well plates and then treated with combinations of Compound 2 and MK-1775 in matrix fashion at the indicated concentrations. Three days after treatment cellular viability was assessed by CellTiter Blue assay. […] Data represent the average of two independent experiments (triplicate plates were averaged for each individual experiment).

[1] = cited from earlier work

Row | SMILES | IC50 (HEL92.1.7 cells) | MTD ([1]; multiple dose (5 BID doses) in combination with carboplatin (AUC 5), trial ongoing) | MTD ([1]; multiple dose (5 BID doses) in combination with cisplatin (75 mg/m^2), trial ongoing) | MTD ([1]; multiple dose in combination with gemcitabine (1000 mg/m^2), BID day 1) | MTD ([1]; multiple dose in combination with gemcitabine (1000 mg/m^2), BID day 2) | MTD ([1]; multiple dose in combination with gemcitabine (1000 mg/m^2), QD day 3) | MTD ([1]; single dose in combination with carboplatin (AUC 5), patients with advanced solid tumors) | MTD ([1]; single dose in combination with cisplatin (75 mg/m^2), patients with advanced solid tumors) | MTD ([1]; single dose in combination with gemcitabine (1000 mg/m^2), patients with advanced solid tumors)
1 | CC(C)C(=O)Nc1c[nH]c2ncc(Br)c(N3CCC[C@@H](N)C3)c12 [Compound 2, (R)—N-(4-(3-aminopiperidin-1-yl)-5-bromo-1H-pyrrolo [2,3-b]pyridin-3-yl)isobutyramide] | 30 nM |  |  |  |  |  |  |  | 
2 | C=CCn1c(=O)c2cnc(Nc3ccc(N4CCN(C)CC4)cc3)nc2n1-c1cccc(C(C)(C)O)n1 [MK-1775] | 103 nM | 225 mg | 125 mg | 50 mg | 25 mg | 25 mg | 325 mg | 200 mg | 200 mg

Source: US10434094B2, “Combination of checkpoint kinase 1 inhibitors and wee 1 kinase inhibitors” (Array BioPharma Inc., priority 2010, dated 2019)
